Reference: publication PMC7011920, “Synthesis and biological evaluation of stilbene derivatives coupled to NO donors as potential antidiabetic agents” (Journal of Enzyme Inhibition and Medicinal Chemistry, 2018)

What was measured:
[1] = Oral toxicity to mice (Lorke's method); details: both sexes, mouse, in vivo, Kunming mice, 14 days observation
Description: With reference to Lorke’s method, Kunming mice were used as targets to estimate oral toxicity of each compound to mice. We select compounds 3c, 3e, and 7c at concentrations of 10, 100, and 1000 mg/kg to test their oral toxicity in the first phase, and 1600, 2900, and 5000 mg/kg at the second phase. […] No death and no appetite-suppressant effect were detected in the tested mice in 14 days. […].
Experiments were performed on Kunming mice (male and female half, body weight range, 25–30 g). Mice were housed in a climate and light controlled room with a 12 h light/dark cycle. Twelve hours before experiments, food was withheld, but animals had free access to drinking water. The compounds were suspended in vehicle (Tween-80, 0.2% in saline). The concentrations were adjusted to orally administrate 0.2 ml/10 g of bw (body weight). Mice were treated in two phases. In the first, intragastric doses of 10, 100 and 1000 mg/kg of bw of compounds were administered. On the second, the doses were adjusted to 1600, 2900 and 5000 mg/kg of bw of compounds. In both phases, mice were observed daily in a period of 14 days for mortality, toxic effects and/or changes in behavioural pattern. At the end of the experiments, the mice were sacrificed in a CO2 chamber.

[2] = target: T1, aldose reductase (ALR2) (Mus musculus, UniProt P45376); assay: In vitro ALR2 inhibitory activity (crude enzyme, NADPH decrease at 340 nm); type: biochemical, mice; details: read-out: IC50 value, ALR2 inhibitory activity
T1 construct: After homogenisation and centrifugation, the crude ALR2 from mice was obtained; from tissue
Description: The enzyme aldose reductase (ALR2) is a member of the aldo–keto reductase superfamily. The development and progression of chronic diabetic complications are confirmed to be quite related to the activation and/or over expression of ALR2[25]. Therefore, ALR2 inhibitors may play a critical role in preventing or treating these complications.
After homogenisation and centrifugation, the crude ALR2 from mice was obtained. The inhibitory activity of the compounds on ALR2 was carried out using crude enzyme and different concentrations of the compounds (1–1000 µg/ml) in 200 mM PBS (pH 6.2) containing 0.10 mM NADPH. The reaction was initiated by addition of glyceraldehyde and the decrease in the optical density of NADPH at 340 nm was recorded for 3 min. All experiments were run in triplicate. IC50 of the compounds was calculated. The flavonoid quercetin was used as a reference in the ALR2 assay.

In the case of `COc1cc(/C=C/c2ccc(OCCCCCCO[N+](=O)[O-])cc2)cc(OC)c1` [3c], the LD50 at 14 days [1] is reported as over 5000 mg/kg and the IC50 [2] is reported as 299 ± 22.6 µM.
